Assay [1] has as its system auditory brain activity (M100 latency, gamma-band ITC, steady state gamma) in autism. Nature of the assay: Magnetoencephalography (MEG) of auditory responses at baseline and 12 weeks after treatment, single subject from clinical trial. It counts as in vivo, human. The method, then:
FIG. 5 provides graphs of M100 latency in autism in response to STX209, showing baseline and post-treatment.
To measure M100 STG latency, a 1 Hz (6 dB/octave, forward) to 40 Hz (48 dB/octave, zero-phase) bandpass filter was applied and left and right M100 STG peak latency (measured in nano-Ampere-meters, nAm) was calculated from the largest point in the M100 scoring window (90 to 190 ms) using in-house MatLab software.
The calculation of single-trial phase and magnitude for the left and right STG sources used a modification of procedures (Hoechstetter et al. (2004) Brain Topogr, 16:233-8.) where in each participant the derived source model was applied to the raw unfiltered data. Transformation from the time domain to the time-frequency domain used complex demodulation procedures (Papp et al. (1977) Biomed Sci Instrum, 13:135-45) implemented in BESA 5.2, using frequencies between 4 and 80 Hz, in steps of 2 Hz.1 Continuous data were analyzed relative to the tone onset every 25 ms, utilizing +/−39.4 ms and +/−2.83 Hz (full width at half maximum parameters) of contiguous data at each 25 ms step. Time-frequency measures were computed from −400 to 400 ms relative to stimulus onset. For evoked activity, background activity at each frequency (average power −400 to −100 ms) was calculated and subtracted as a function of frequency. In addition to evoked activity, for each time-frequency bin, a measure of phase-locking referred to as inter-trial coherence was computed as
[formula] where the sum is over all N trials, and Ø (k) is the phase of the signal in the k^th trial. Inter-trial coherence (ITC) is a normalized measure with ITC=1 reflecting no phase variability and ITC=0 reflecting maximal phase variability across trials (Lachaux et al. (1999) Hum. Brain Mapp, 8:194-208). Group Comparisons
A single subject from a recent phase/T clinical trial of STX209 (arbaclofen), a […] agonist, underwent MEG at baseline and at 12 weeks after treatment. […] Indeed, a reduction in 100 ms latency for 4 stimuli in both hemispheres was observed.

Assay [2] relates to baseline gamma power. The note with it: NMDAR antagonists; in vivo LFP and EEG recordings in awake rodents; cited from earlier work.

Regarding `NC[C@H](CC(=O)O)c1ccc(Cl)cc1` [STX209, arbaclofen], the “auditory M100 latency” value in assay [1] (MEG at baseline vs 12 weeks after treatment, 4 stimuli, both hemispheres, FIG. 5) was “shortened post-treatment”. In addition, the “gamma-band inter-trial coherence (ITC)” value in assay [1] (MEG at baseline vs 12 weeks after treatment, both hemispheres, FIG. 6) is given as “gamma band ITC was restored after treatment”. In assay [1] (baseline vs post-treatment, elicited by AM tone, driven at 40 Hz, FIG. 7), the “steady state gamma power” value is “boosted post-treatment”.
As for `C[C@]12N[C@H](Cc3ccccc31)c1ccccc12` [MK-801], the baseline gamma power result in assay [2] was “dose-dependent increase in baseline gamma power”.
Consider `CNC1(c2ccccc2Cl)CCCCC1=O` (stereo not drawn) [ketamine], for which, in assay [2], the baseline gamma power entry is reported as “dose-dependent increase in baseline gamma power”.
As for `c1ccc(C2(N3CCCCC3)CCCCC2)cc1` [PCP], the baseline gamma power entry in assay [2] is “dose-dependent increase in baseline gamma power”.
